Source: the supplement of paper PMC4628005

Key:
Settings in all cases: drug exposure time: 96 h
Erlotinib = compound: C#Cc1cccc(Nc2ncnc3cc(OCCOC)c(OCCOC)cc23)c1 [Erlotinib]
Protocol: (§1)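 Breast cancer cell lines were grown in RPMI 1640 with 10% FBS on collagen I-coated 96-well plates and treated for 96 h (from 24 h after seeding) with 12 dilutions per drug, in triplicate. Growth was read by sulforhodamine B total-protein staining (absorbance 570 nm) relative to diluent control, and IC50 was calculated. The top dose was 1e-5 M for most drugs; Bortezomib went to 2e-5 M and Sirolimus and 17-AAG to 2e-6 M[…].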

Docetaxel = compound: CC(=O)O[C@@]12CO[C@@H]1C[C@H](O)[C@@]1(C)C(=O)[C@H](O)C3=C(C)[C@@H](OC(=O)[C@H](O)[C@@H](NC(=O)OC(C)(C)C)c4ccccc4)C[C@@](O)([C@@H](OC(=O)c4ccccc4)[C@H]21)C3(C)C [Docetaxel]
Protocol: as §1

Paclitaxel = compound: CC(=O)O[C@H]1C(=O)[C@@]2(C)[C@H]([C@H](OC(=O)c3ccccc3)[C@]3(O)C[C@H](OC(=O)[C@H](O)[C@@H](NC(=O)c4ccccc4)c4ccccc4)C(C)=C1C3(C)C)[C@]1(OC(C)=O)CO[C@@H]1C[C@@H]2O [Paclitaxel]
Protocol: as §1

MI-219 = compound: CC(C)(C)C[C@H]1N[C@@H](C(=O)NCC[C@H](O)CO)[C@H](c2cccc(Cl)c2)[C@@]12C(=O)Nc1cc(Cl)c(F)cc12 [MI-219]
Protocol: as §1

Tamoxifen = compound: CC/C(=C(\c1ccccc1)c1ccc(OCCN(C)C)cc1)c1ccccc1 [Tamoxifen]
Protocol: as §1

Sunitinib = compound: CCN(CC)CCNC(=O)c1c(C)[nH]c(/C=C2\C(=O)Nc3ccc(F)cc32)c1C [Sunitinib]
Protocol: as §1

Methotrexate = compound: CN(Cc1cnc2nc(N)nc(N)c2n1)c1ccc(C(=O)N[C@@H](CCC(=O)O)C(=O)O)cc1 [Methotrexate]
Protocol: as §1

Sorafenib = compound: CNC(=O)c1cc(Oc2ccc(NC(=O)Nc3ccc(Cl)c(C(F)(F)F)c3)cc2)ccn1 [Sorafenib]
Protocol: as §1

Vandetanib = compound: COc1cc2/c(=N/c3ccc(Br)cc3F)nc[nH]c2cc1OCC1CCN(C)CC1 [Vandetanib]
Protocol: as §1

Gefitinib = compound: COc1cc2ncnc(Nc3ccc(F)c(Cl)c3)c2cc1OCCCN1CCOCC1 [Gefitinib]
Protocol: as §1

Nutlin-3 = compound: COc1ccc(C2=N[C@@H](c3ccc(Cl)cc3)[C@@H](c3ccc(Cl)cc3)N2C(=O)N2CCNC(=O)C2)c(OC(C)C)c1 [Nutlin-3]
Protocol: as §1

Lapatinib = compound: CS(=O)(=O)CCNCc1ccc(-c2ccc3ncnc(Nc4ccc(OCc5cccc(F)c5)c(Cl)c4)c3c2)o1 [Lapatinib]
Protocol: as §1

Panobinostat = compound: Cc1[nH]c2ccccc2c1CCNCc1ccc(/C=C/C(=O)NO)cc1 [Panobinostat]
Protocol: as §1

Brivanib = compound: Cc1cc2c(F)c(Oc3ncnn4cc(OC[C@@H](C)O)c(C)c34)ccc2[nH]1 [Brivanib]
Protocol: as §1

Dasatinib = compound: Cc1nc(Nc2ncc(C(=O)Nc3c(C)cccc3Cl)s2)cc(N2CCN(CCO)CC2)n1 [Dasatinib]
Protocol: as §1

Quisinostat = compound: Cn1cc(CNCC2CCN(c3ncc(C(=O)NO)cn3)CC2)c2ccccc21 [Quisinostat]
Protocol: as §1

Azacitidine = compound: Nc1ncn([C@@H]2O[C@H](CO)[C@@H](O)[C@H]2O)c(=O)n1 [Azacitidine]
Protocol: as §1

Decitabine = compound: Nc1ncn([C@H]2C[C@H](O)[C@@H](CO)O2)c(=O)n1 [Decitabine]
Protocol: as §1

Belinostat = compound: O=C(/C=C/c1cccc(S(=O)(=O)Nc2ccccc2)c1)NO [Belinostat]
Protocol: as §1

Vorinostat = compound: O=C(CCCCCCC(=O)Nc1ccccc1)NO [Vorinostat]
Protocol: as §1

Mitoxantrone = compound: O=C1c2c(O)ccc(O)c2C(=O)c2c(NCCNCCO)ccc(NCCNCCO)c21 [Mitoxantrone]
Protocol: as §1

5-Fluorouracil = compound: O=c1[nH]cc(F)c(=O)[nH]1 [5-Fluorouracil]
Protocol: as §1

Serdemetan = compound: c1ccc2c(CCNc3ccc(Nc4ccncc4)cc3)c[nH]c2c1 [Serdemetan]
Protocol: as §1

17-AAG = compound: C=CCNC1=C2C[C@@H](C)C[C@H](OC)[C@H](O)[C@@H](C)/C=C(\C)[C@H](OC(N)=O)[C@@H](OC)/C=C\C=C(/C)C(=O)NC(=CC1=O)C2=O [17-AAG]
Protocol: (§2)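 Same SRB 96 h IC50 screen on breast cancer cell lines (RPMI 1640 + 10% FBS, collagen I-coated 96-well plates, triplicates, 12 dilutions), for drugs with a different dose range: Bortezomib up to 2e-5 M; Sirolimus and 17-AAG up to 2e-6 M. Sirolimus values at the 2e-6 M top dose are censored.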

Bortezomib = compound: CC(C)C[C@H](NC(=O)[C@H](Cc1ccccc1)NC(=O)c1cnccn1)B(O)O [Bortezomib]
Protocol: as §2

Sirolimus = compound: CO[C@H]1C[C@@H]2CC[C@@H](C)[C@@](O)(O2)C(=O)C(=O)N2CCCC[C@H]2C(=O)O[C@H]([C@H](C)C[C@@H]2CC[C@@H](O)[C@H](OC)C2)CC(=O)[C@H](C)/C=C(\C)[C@@H](O)[C@@H](OC)C(=O)[C@H](C)C[C@H](C)/C=C/C=C/C=C/1C [Sirolimus]
Protocol: as §2

Doxorubicin = compound: COc1cccc2c1C(=O)c1c(O)c3c(c(O)c1C2=O)C[C@@](O)(C(=O)CO)C[C@@H]3O[C@H]1C[C@H](N)[C@H](O)[C@H](C)O1 [Doxorubicin]
Protocol: as §1

Cisplatin = compound: N.N.[Cl][Pt][Cl] [Cisplatin]
Protocol: as §1

Test System	IC50 (SRB growth assay) (Erlotinib)	IC50 (SRB growth assay) (Docetaxel)	IC50 (SRB growth assay) (Paclitaxel)	IC50 (SRB growth assay) (MI-219)	IC50 (SRB growth assay) (Tamoxifen)	IC50 (SRB growth assay) (Sunitinib)	IC50 (SRB growth assay) (Methotrexate)	IC50 (SRB growth assay) (Sorafenib)	IC50 (SRB growth assay) (Vandetanib)	IC50 (SRB growth assay) (Gefitinib)	IC50 (SRB growth assay) (Nutlin-3)	IC50 (SRB growth assay) (Lapatinib)	IC50 (SRB growth assay) (Panobinostat)	IC50 (SRB growth assay) (Brivanib)	IC50 (SRB growth assay) (Dasatinib)	IC50 (SRB growth assay) (Quisinostat)	IC50 (SRB growth assay) (Azacitidine)	IC50 (SRB growth assay) (Decitabine)	IC50 (SRB growth assay) (Belinostat)	IC50 (SRB growth assay) (Vorinostat)	IC50 (SRB growth assay) (Mitoxantrone)	IC50 (SRB growth assay) (5-Fluorouracil)	IC50 (SRB growth assay) (Serdemetan)	IC50 (SRB growth assay) (17-AAG)	IC50 (SRB growth assay) (Bortezomib)	IC50 (SRB growth assay) (Sirolimus)	IC50 (SRB growth assay) (Doxorubicin)	IC50 (SRB growth assay) (Cisplatin)
SKBR 7	> 10000 nM	0.338 nM	1.07 nM	3200 nM	8320 nM	5350 nM	11.1 nM	2400 nM	7760 nM	> 10000 nM	7530 nM	2510 nM	15.9 nM	> 10000 nM	> 10000 nM	7.17 nM	> 10000 nM	2510 nM	470 nM	918 nM	3.02 nM	1580 nM	798 nM	74.1 nM	24.6 nM	0.886 nM		
SUM 149 PT	766 nM	0.226 nM	1.31 nM	> 10000 nM	5210 nM	3430 nM	10.6 nM	5590 nM	877 nM	2860 nM	> 10000 nM	81 nM	8.96 nM	> 10000 nM	70.6 nM	6.79 nM	> 10000 nM	81 nM	171 nM	515 nM	1 nM	7760 nM	608 nM	17.7 nM	5.35 nM	10.7 nM		
SUM 159 PT	5260 nM	0.71 nM	2.95 nM	> 10000 nM	6360 nM	1960 nM	2.36 nM	3730 nM	5260 nM	> 10000 nM	> 10000 nM	46.7 nM	8.19 nM	> 10000 nM	4060 nM	8.78 nM	> 10000 nM	46.7 nM	213 nM	475 nM	1.24 nM	1680 nM	547 nM	4.73 nM	3.27 nM	0.288 nM		
SUM 185 PE	9480 nM	2.17 nM	4.07 nM	> 10000 nM	5380 nM	1040 nM	> 10000 nM	2530 nM	2280 nM	> 10000 nM	> 10000 nM	> 10000 nM	8.38 nM	4530 nM	> 10000 nM	5.45 nM	> 10000 nM	> 10000 nM	352 nM	891 nM	7.18 nM	> 10000 nM	1140 nM	8.53 nM	8.04 nM	0.0747 nM		
SUM 190 PT	5250 nM	0.883 nM	1.91 nM	> 10000 nM	8040 nM	3870 nM	> 10000 nM	2060 nM	4540 nM	> 10000 nM	> 10000 nM	> 10000 nM	78 nM	> 10000 nM	223 nM	72.4 nM	> 10000 nM	> 10000 nM	4610 nM	4730 nM	20.8 nM	> 10000 nM	871 nM	79.5 nM	6.51 nM	0.548 nM		
SUM 229 PE	7630 nM	0.539 nM	1.46 nM	> 10000 nM	4170 nM	3320 nM	25.7 nM	5640 nM	1870 nM	7560 nM	> 10000 nM	27.2 nM	25.1 nM	> 10000 nM	387 nM	10.6 nM	> 10000 nM	27.2 nM	1000 nM	1820 nM	6.3 nM	2960 nM	292 nM	19.8 nM	5.42 nM	0.201 nM		
SUM 1315 MO2	> 10000 nM	1.54 nM	3.29 nM	> 10000 nM	> 10000 nM	4280 nM	138 nM	5570 nM	2590 nM	> 10000 nM	> 10000 nM	6720 nM	31.7 nM	7200 nM	53.7 nM	29.6 nM	3600 nM		703 nM	1190 nM	2.7 nM	> 10000 nM	1190 nM	55.1 nM	6.55 nM	0.917 nM	17.5 nM	> 10000 nM
UACC 893	1490 nM	0.701 nM	1.95 nM	> 10000 nM	5500 nM	2300 nM	164 nM	4460 nM	4360 nM	1710 nM	> 10000 nM	> 10000 nM	5.26 nM	> 10000 nM	6910 nM	4.25 nM	> 10000 nM	> 10000 nM	134 nM	487 nM	4.1 nM	8200 nM	2870 nM	18.2 nM	3.92 nM	0.072 nM		
